We go through three compounds from patent publication US20220167853A1, “Method for plaque detection” (Koite Health Oy, priority 2019, published 2022).

Experiment [1] deals with Streptococcus mutans biofilm. Description: Streptococcus mutans monospecies biofilm model, PDT with indocyanine green, viability by serial dilution CFU. It is filed as cell-based, Streptococcus mutans (ATCC 25175). To be noted: 250 μg/ml ICG with 810 nm light. As to the method: Two separate monospecies biofilm model experiments were performed to study the effect of reoccurring photodynamic therapy on biofilm formation. The Streptococcus mutans biofilm experiments were divided in different classes based on biofilm age and the therapy given.
The one-time PDT treatment was performed for 1 day, 2 days and 4 days old biofilms. […] The viability of the bacteria was assessed by serial dilution CFU method which was performed after the last photodynamic therapy treatment.
Streptococcus mutans (ATCC 25175) bacteria was grown over 18 h in growth chamber (36° C., 5% CO2) in BHI-broth (Bio-Rad 3564014). The resulting bacteria suspension was diluted with 0.9% NaCl suspension to optical density of 0.46.
Biofilm was grown on bottom of well plate by adding 100 ul diluted Streptococcus mutans suspension in each well with 100 μl of BHI-broth growth medium. The bacteria plate was incubated in growth chamber (36 Celsius, 5% CO2) and BHI-broth medium changed daily.
Before the light exposure, the growth medium was replaced with indocyanine green suspension which was let to incubate in dark in room temperature for 10 minutes. […] The treatment time was calculated from desired light amount and known intensity.
The light exposure was performed by placing the well plate under known LED light source. The given light intensity was analyzed with Thorlabs PM100D and S121C sensor head. […]

In experiment [2] the test system is Streptococcus mutans biofilm. As to the kind of experiment: Potentiation of chlorhexidine with dual wavelength PDT. It is filed as cell-based. The conditions noted are these: versus reference and treatment with only one wavelength; FIG. 3. The text has this: Treatment can be combined with use of antibiotics and disinfectants for synergist antipathogen effect. For example, the use phototherapy with chlorhexidine to target biofilms is new to oral disinfection. The results of dual wavelength photodynamic therapy with chlorhexidine against Streptococcus mutans biofilm shown in appendix III are completely new. […] The effectivity is based on photon and anionic photosensitizer ability to penetrate deeper into biofilm and provide efficient bacteria killing inside the biofilm as well as on the surface. The chlorhexidine effect is mostly present only on the surface of the biofilm. High energy photons reduce the biofilm EPS matrix formation that further increases the chlorhexidine effectivity in subsequent treatments. In a second series of tests, potentiation of chlorhexidine with dual wavelength PDT was evaluated.

Experiment [3] relates to monospecies biofilm of Streptococcus sobrinus. The conditions noted are these: monospecies biofilm vs planktonic form; cited from earlier work.

“Also recorded” adds a separate entry of the source.

Regarding `CC1(C)C(/C=C/C=C/C=C/C=C2\N(CCCCS(=O)(=O)O)c3ccc4ccccc4c3C2(C)C)=[N+](CCCCS(=O)(=O)[O-])c2ccc3ccccc3c21` [ICG, Indocyanine Green], the “effect of PDT treatment on biofilm (CFU)” value in experiment [1] (single wavelength, 4 days old biofilm treated every day) is given as “poor treatment effect”; in experiment [1] (treatment given once to 1, 2 and 4 days old biofilms), “strong effect”.
Consider `[H]/N=C(\N/C(=N/[H])NCCCCCCNC(=N)NC(=N)Nc1ccc(Cl)cc1)Nc1ccc(Cl)cc1` [chlorhexidine], for which the “antimicrobial effect of chlorhexidine combined with multi (dual) wavelength PDT” value in experiment [2] is recorded as “increased substantially; also recorded: much stronger effect”. Also, in experiment [3], the “greater concentration needed to kill biofilm than planktonic counterpart” value is on record as 100 time.
Consider amine fluoride, for which, in experiment [3], the “greater concentration needed to kill biofilm than planktonic counterpart” value is 100 time.
